Like-named read-outs stand apart in the source and are kept apart here.
Experiments:
[1] = biological target: T1, purified recombinant human IDO1 (rhIDO1) (Homo sapiens, UniProt P14902); conditions: cited from earlier work
T1 construct: purchased Origene

[2] = biological target: T1, purified recombinant human IDO1 (rhIDO1); assay: rhIDO1 enzymatic assay (conversion of L-Trp to L-KYN, p-dimethylaminobenzaldehyde readout); format: biochemical; conditions: for inhibition at 1 µM: rhIDO1, compound 1 µM, mean ± SE of two independent experiments; for IC50: rhIDO1, concentration-response curves, at least three experiments in triplicate
Protocol: All the 22 synthesized compounds were then biologically evaluated (Table 1). The compounds were tested for their ability to inhibit human IDO1 in an enzyme-based assay using a purified recombinant human IDO1 (rhIDO1) enzyme (Table 1). Each compound (1 µM) was added to the reaction buffer and the rhIDO1 conversion of L-Trp to L-KYN was determined spectrophotometrically using p-dimethylaminobenzaldehyde. As reference, imidazothiazole compound 1-((3-(4-bromophenyl)-3aH-thieno [2,3-b]pyrrol-4-yl)methyl)-3-(4-cyanophenyl)urea, displaying an IC50 value of 0.08 µM, was chosen.
rhIDO1 activity was determined as follows. In brief, the standard reaction mixture (200 μL) contained 50 mM potassium phosphate buffer (KPB) (pH 6.5), 20 mM ascorbic acid (neutralized with NaOH and HCl) (Sigma Aldrich), 100 μg/mL catalase (Sigma Aldrich), 10 μM methylene blue (Alfa Aesar, Heysham, Lancashire, UK), 100 µM L-tryptophan (Sigma Aldrich), 50 nM rhIDO1 (Origene, Bologna, Italy), and dimethyl sulfoxide (DMSO) solution of the compound (4 μL). The reaction was carried out at 37 °C for 60 min and stopped by the addition of 40 μL of 30% (w/v) CCl3COOH. After heating at 50 °C for 15 min, the reaction mixture was centrifuged at 1500× g for 10 min. The supernatant (150 μL) was transferred into a well of a 96-well microplate and mixed with 150 μL of 2% (w/v) p-dimethylaminobenzaldehyde (Ehrlich’s reagent) in acetic acid. The yellow pigment derived from kynurenine was measured at 490 nm using an Ultramark Microplate Imaging System (Bio-Rad, Hercules, CA, USA). IC50 values were calculated from concentration-response curves obtained in at least three different experiments run in triplicate.

IDO1 = tested on: IDO1; parameters: method as in PMID 29398544; conditions: cited from earlier work

T1 sequence (P14902 whole entry): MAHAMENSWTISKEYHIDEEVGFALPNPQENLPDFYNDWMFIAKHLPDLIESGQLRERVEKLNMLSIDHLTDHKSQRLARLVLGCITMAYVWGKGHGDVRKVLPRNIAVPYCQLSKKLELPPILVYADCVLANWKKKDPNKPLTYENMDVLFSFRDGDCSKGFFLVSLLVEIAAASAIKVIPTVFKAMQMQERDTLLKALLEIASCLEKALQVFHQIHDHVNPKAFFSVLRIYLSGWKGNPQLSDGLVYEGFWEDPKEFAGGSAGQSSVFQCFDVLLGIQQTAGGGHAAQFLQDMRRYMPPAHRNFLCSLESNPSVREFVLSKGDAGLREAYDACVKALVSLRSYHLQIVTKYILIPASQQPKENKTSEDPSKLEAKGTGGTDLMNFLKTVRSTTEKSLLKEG

## N#Cc1ccc(NC(=O)NCC2=CN=C3SC=C(c4ccc(Br)cc4)C23)cc1 (stereo not shown) [1-((3-(4-bromophenyl)-3aH-thieno [2,3-b]pyrrol-4-yl)methyl)-3-(4-cyanophenyl)urea]
[1]; rhIDO1, read-out: IC50 (rhIDO1)
  IC50: 80 nM

## Brc1ccc(-c2csc3ncc(Cn4cc(Cc5ccccc5)nn4)n23)cc1 [11a, 5-((4-Benzyl-1H-1,2,3-triazol-1-yl)methyl)-3-(4-bromophenyl)imidazo[2,1-b]thiazole]
other
  melting point: 106.5 to 107.5 °C
[2]
  inhibition at 1 µM: 30 ± 6.7%

## Brc1ccc(-c2csc3ncc(Cn4cc(-c5ccccc5)nn4)n23)cc1 [11b, 3-(4-Bromophenyl)-5-((4-phenyl-1H-1,2,3-triazol-1-yl)methyl)imidazo[2,1-b]thiazole]
other
  melting point: 199 to 199.5 °C (dec.)
[2]
  inhibition at 1 µM: 35 ± 2.7%

## COc1ccc(-c2cn(Cc3cnc4scc(-c5ccc(Br)cc5)n34)nn2)cc1 [11c, 3-(4-Bromophenyl)-5-((4-(4-methoxyphenyl)-1H-1,2,3-triazol-1-yl)methyl)imidazo[2,1-b]thiazole]
other
  melting point: 118 to 119 °C (dec.)
[2]
  inhibition at 1 µM: 57 ± 13%

## Nc1ccc(-c2cn(Cc3cnc4scc(-c5ccc(Br)cc5)n34)nn2)cc1 [11d, 4-(1-((3-(4-Bromophenyl)imidazo[2,1-b]thiazol-5-yl)methyl)-1H-1,2,3-triazol-4-yl)aniline]
other
  melting point: 117 to 118 °C (dec.)
[2]
  inhibition at 1 µM: 17 ± 1.2%

## N#Cc1ccc(-c2cn(Cc3cnc4scc(-c5ccc(Br)cc5)n34)nn2)cc1 [11e, 4-(1-((3-(4-Bromophenyl)imidazo[2,1-b]thiazol-5-yl)methyl)-1H-1,2,3-triazol-4-yl)benzonitrile]
other
  melting point: 190 to 191 °C (dec.)
[2]
  inhibition at 1 µM: 28 ± 1.5%

## N#CCc1ccc(-c2cn(Cc3cnc4scc(-c5ccc(Br)cc5)n34)nn2)cc1 [11f, 2-(4-(1-((3-(4-Bromophenyl)imidazo[2,1-b]thiazol-5-yl)methyl)-1H-1,2,3-triazol-4-yl)phenyl)acetonitrile]
other
  melting point: 121.5 to 122.5 °C
[2]
  inhibition at 1 µM: 74 ± 5.8%
  IC50: 500 ± 40 nM

## Brc1ccc(-c2csc3ncc(Cn4cc(C5CC5)nn4)n23)cc1 [11g, 3-(4-Bromophenyl)-5-((4-cyclopropyl-1H-1,2,3-triazol-1-yl)methyl)imidazo[2,1-b]thiazole]
other
  melting point: 145.5 to 146.5 °C
[2]
  inhibition at 1 µM: 61 ± 7.1%

## OC1(c2cn(Cc3cnc4scc(-c5ccc(Br)cc5)n34)nn2)CCCCC1 [11h, 1-(1-((3-(4-Bromophenyl)imidazo[2,1-b]thiazol-5-yl)methyl)-1H-1,2,3-triazol-4-yl)cyclohexanol]
other
  melting point: 163.5 to 164.5 °C (dec.)
[2]
  inhibition at 1 µM: 35 ± 2.4%

## OCCCc1cn(Cc2cnc3scc(-c4ccc(Br)cc4)n23)nn1 [11i, 3-(1-((3-(4-Bromophenyl)imidazo[2,1-b]thiazol-5-yl)methyl)-1H-1,2,3-triazol-4-yl)propan-1-ol]
[2]
  inhibition at 1 µM: 0%

## O=C(O)CCc1cn(Cc2cnc3scc(-c4ccc(Br)cc4)n23)nn1 [11j, 3-(1-((3-(4-Bromophenyl)imidazo[2,1-b]thiazol-5-yl)methyl)-1H-1,2,3-triazol-4-yl)propanoic acid]
other
  melting point: 148 to 148.5 °C (dec.)
[2]
  inhibition at 1 µM: 81 ± 7.9%
  IC50: 1100 ± 70 nM

## N#CCCCCc1cn(Cc2cnc3scc(-c4ccc(Br)cc4)n23)nn1 [11k, 5-(1-((3-(4-Bromophenyl)imidazo[2,1-b]thiazol-5-yl)methyl)-1H-1,2,3-triazol-4-yl)pentanenitrile]
[2]
  inhibition at 1 µM: 62 ± 5.6%

## O=C(Cn1cc(Cc2ccccc2)nn1)NCc1cnc2scc(-c3ccc(Br)cc3)n12 [12a, 2-(4-Benzyl-1H-1,2,3-triazol-1-yl)-N-((3-(4-bromophenyl)imidazo[2,1-b]thiazol-5-yl)methyl)acetamide]
other
  melting point: 177 to 177.5 °C
[2]
  inhibition at 1 µM: 63 ± 4.3%

## O=C(Cn1cc(-c2ccccc2)nn1)NCc1cnc2scc(-c3ccc(Br)cc3)n12 [12b, N-((3-(4-Bromophenyl)imidazo[2,1-b]thiazol-5-yl)methyl)-2-(4-phenyl-1H-1,2,3-triazol-1-yl)acetamide]
other
  melting point: 251.5 to 252.5 °C (dec.)
[2]
  inhibition at 1 µM: 61 ± 5.5%

## COc1ccc(-c2cn(CC(=O)NCc3cnc4scc(-c5ccc(Br)cc5)n34)nn2)cc1 [12c, N-((3-(4-Bromophenyl)imidazo[2,1-b]thiazol-5-yl)methyl)-2-(4-(4-methoxyphenyl)-1H-1,2,3-triazol-1-yl)acetamide]
other
  melting point: 183 to 184 °C
[2]
  inhibition at 1 µM: 5 ± 1.2%

## Nc1ccc(-c2cn(CC(=O)NCc3cnc4scc(-c5ccc(Br)cc5)n34)nn2)cc1 [12d, 2-(4-(4-Aminophenyl)-1H-1,2,3-triazol-1-yl)-N-((3-(4-bromophenyl)imidazo[2,1-b]thiazol-5-yl)methyl)acetamide]
other
  melting point: 217 to 218 °C (dec.)
[2]
  inhibition at 1 µM: 56 ± 4.7%

## N#Cc1ccc(-c2cn(CC(=O)NCc3cnc4scc(-c5ccc(Br)cc5)n34)nn2)cc1 [12e, N-((3-(4-Bromophenyl)imidazo[2,1-b]thiazol-5-yl)methyl)-2-(4-(4-cyanophenyl)-1H-1,2,3-triazol-1-yl)acetamide]
other
  melting point: 267 to 267.5 °C (dec.)
[2]
  inhibition at 1 µM: 50 ± 4.5%

## N#CCc1ccc(-c2cn(CC(=O)NCc3cnc4scc(-c5ccc(Br)cc5)n34)nn2)cc1 [12f, N-((3-(4-Bromophenyl)imidazo[2,1-b]thiazol-5-yl)methyl)-2-(4-(4-(cyanomethyl)phenyl)-1H-1,2,3-triazol-1-yl)acetamide]
other
  melting point: 231 to 231.5 °C
[2]
  inhibition at 1 µM: 55 ± 7.2%

## O=C(Cn1cc(C2CC2)nn1)NCc1cnc2scc(-c3ccc(Br)cc3)n12 [12g, N-((3-(4-Bromophenyl)imidazo[2,1-b]thiazol-5-yl)methyl)-2-(4-cyclopropyl-1H-1,2,3-triazol-1-yl)acetamide]
other
  melting point: 225 to 225.5 °C (dec.)
[2]
  inhibition at 1 µM: 70 ± 9.2%
  IC50: 200 ± 10 nM

## O=C(Cn1cc(C2(O)CCCCC2)nn1)NCc1cnc2scc(-c3ccc(Br)cc3)n12 [12h, N-((3-(4-Bromophenyl)imidazo[2,1-b]thiazol-5-yl)methyl)-2-(4-(1-hydroxycyclohexyl)-1H-1,2,3-triazol-1-yl)acetamide]
other
  melting point: 165 to 166 °C
[2]
  inhibition at 1 µM: 63 ± 4.1%

## O=C(Cn1cc(CCCO)nn1)NCc1cnc2scc(-c3ccc(Br)cc3)n12 [12i, N-((3-(4-Bromophenyl)imidazo[2,1-b]thiazol-5-yl)methyl)-2-(4-(3-hydroxypropyl)-1H-1,2,3-triazol-1-yl)acetamide]
other
  melting point: 169 to 170 °C (dec.)
[2]
  inhibition at 1 µM: 45 ± 2.8%

## O=C(O)CCc1cn(CC(=O)NCc2cnc3scc(-c4ccc(Br)cc4)n23)nn1 [12j, 3-(1-(2-(((3-(4-Bromophenyl)imidazo[2,1-b]thiazol-5-yl)methyl)amino)-2-oxoethyl)-1H-1,2,3-triazol-4-yl)propanoic acid]
other
  melting point: 153 to 154 °C (dec.)
[2]
  inhibition at 1 µM: 33 ± 4.5%

## N#CCCCCc1cn(CC(=O)NCc2cnc3scc(-c4ccc(Br)cc4)n23)nn1 [12k, N-((3-(4-Bromophenyl)imidazo[2,1-b]thiazol-5-yl)methyl)-2-(4-(4-cyanobutyl)-1H-1,2,3-triazol-1-yl)acetamide]
other
  melting point: 179.5 to 180.5 °C
[2]
  inhibition at 1 µM: 50 ± 11%

## O=C(COC(=O)Cc1ccc(O)cc1)NCc1cnc2scc(-c3ccc(Br)cc3)n12 [compound 2]
IDO1
  ability to permeate the cell and inhibit IDO1 in a cell-based assay: not able to significantly permeate the cell and to inhibit IDO1 in a cell-based assay

## CN(CC(=O)NCc1cnc2scc(-c3ccc(Br)cc3)n12)C(=O)Cc1ccc([N+](=O)[O-])cc1 [compound 3]
IDO1
  ability to permeate the cell and inhibit IDO1 in a cell-based assay: not able to significantly permeate the cell and to inhibit IDO1 in a cell-based assay
[1]; first series, published in 2018, read-out: IC50
  IC50: 800 nM

From paper PMC6572114, “Synthesis, Docking and Biological Evaluation of a Novel Class of Imidazothiazoles as IDO1 Inhibitors” (Molecules, 2019)
